The results in this text go back to ChEMBL document CHEMBL3046766, “Design, synthesis, and insecticidal evaluation of new benzoylureas containing isoxazoline and isoxazole group” (2011).

Structures are written as SMILES. In brackets after ≈: the same amount, converted by molar mass.

What all share (format): functional
Experiment [1] has as its system Culex pipiens pallens. In words: Insecticidal activity against Culex pipiens pallens (mosquito) fourth-instar larvae assessed as larvicidal activity at 0.005 mg/L measured 8 days post treatment. To be noted: 192 h.
The test system of experiment [2] is Mythimna separata. Put plainly: Insecticidal activity against Mythimna separata (Oriental armyworm) fourth-instar larvae infested compound pre-treated corn leaves assessed as larvicidal activity at 0.25 mg/L measured 4 days post treatment.
In the next experiment the test system is Plutella xylostella. In words: Insecticidal activity against Plutella xylostella (diamondback moth) […] larvae infested on compound pre-treated fresh cabbage leaves assessed as larvicidal activity measured 3 days post treatment.
The test system of experiment [3] is Mythimna separata. Put plainly: Insecticidal activity against Mythimna separata (Oriental armyworm) fourth-instar larvae infested compound pre-treated corn leaves assessed as larvicidal activity at 0.5 mg/L measured 4 days post treatment.
Experiment [4] concerns Culex pipiens pallens. Put plainly: Insecticidal activity against Culex pipiens pallens (mosquito) fourth-instar larvae assessed as larvicidal activity at 0.0005 mg/L measured 8 days post treatment. To be noted: 192 h.
Experiment [5] deals with Mythimna separata. In words: Insecticidal activity against Mythimna separata (Oriental armyworm) fourth-instar larvae infested compound pre-treated corn leaves assessed as larvicidal activity at 1 mg/L measured 4 days post treatment.
For experiment [6], the system named is Culex pipiens pallens. Put plainly: Insecticidal activity against Culex pipiens pallens (mosquito) fourth-instar larvae assessed as larvicidal activity at 0.001 mg/L measured 8 days post treatment. The following applies: 192 h.

With `CC(C)(C)O/N=C/c1ccc(NC(=O)NC(=O)c2c(F)cccc2F)cc1`, the mortality at 0.005 µg/mL with Culex pipiens pallens [1] is 100%. Also, in the experiment on Mythimna separata [2], the mortality at 0.25 µg/mL was 0%. Moreover, in the experiment on Plutella xylostella, the LC50 turned out to be 30.8 µg/mL (≈ 82 µM). Besides, in the experiment with Mythimna separata [3], the mortality at 0.5 µg/mL was found to be 85%. In the experiment with Culex pipiens pallens [4], the mortality at 0.0005 µg/mL was found to be 20%. The mortality at 1 µg/mL with Mythimna separata [5] worked out at 100%. Also, the mortality at 0.001 µg/mL in the experiment on Culex pipiens pallens [6] was determined as 70%.

A word on the mortality: it is the share of the test organisms that died. By LC50 is commonly meant the concentration that kills 50% of the test population.
